Measurements published in US20040013649A1, “Cancer vaccines and methods of using the same” (Inex Pharmaceuticals Corporation, priority 2002, published 2004).
“Also recorded” adds a separate entry of the source. [5mC] = 5-methylcytosine

Experiments:
dendritic cells [1] = assay: activation of dendritic cells (CD86 co-expression); assay type: in vivo, ICR mice; details: lipid encapsulated, single i.v. injection 20 mg/kg, versus PBS control = 100%
Description: (§1) ICR mice were immunized with a single intravenous injection of encapsulated oligonucleotides at a dose of 20 mg/kg and the control ICR mouse was injected with PBS. […] Each of these markers are specific to dendritic cells though they may represent different cell sub-populations. In each of FIGS. 4 and 5 the control was plotted as equivalent to 100% and the effect of ODN1m for each backbone configuration was plotted as a percentage of that control.
On collection of the samples the cells were first analyzed by flow cytometry for the co-expression of CD86, which indicates cell activation, and the dendritic cell phenotype markers CD11c and DEC205. The percentage of activated dendritic cells was plotted against a PBS control equivalent to 100%. […] Similar results are shown when measuring DEC205 positive dendritic cells in FIG. 5 panels.

dendritic cells [2] = assay: expansion of dendritic cells (CD11c, DEC205) in spleen, blood and lymph nodes; assay type: in vivo, ICR mice; details: lipid encapsulated; single i.v. injection 20 mg/kg; versus PBS control = 100%; 20 mg/kg
Description: as §1

[3] = test system: dendritic cells, NK cells, and CD8+ T-cells; assay: cytokine release assay after subcutaneous immunization; assay type: in vivo, C57BI/6 mice; details: lipid encapsulated; 100 μg ODN + 20 μg antigen s.c. q7d×3; FIGS. 10 and 11
Description: To monitor immunological response to subcutaneous immunization, antigen specific cellular immune responses were monitored using MHC Class.l-tetramer analyses, cytotoxicity assays and cytokine release assays while humoral immune responses were monitored by measuring plasma antibody levels. Cellular and humoral responses were assessed in C57BI/6 and Balb/C mice respectively (5 animals per group). For analysis of the cellular response, mice were immunized subcutaneously with 3 injections on a q7d×3 dosing regimen on Days 0, 7 and 14 at a dose of 100 μg oligonucleotide in combination with 20 μg of antigen . The spleen, liver, lymph node and blood tissues were collected on Day 21. Solid tissues were mechanically dissociated and cells were processed to collect mononuclear cells. […]
The aim of the cytokine release assay is to detect antigen-specific immune effector cells that are activated to produce and secrete cytokines, specifically IFN-γ, in response to stimulation with a specific antigen. Cells were isolated from the spleen, liver, blood and lymph nodes of immunized animals and analyzed using the Cytokine Secretion Assay (Miltenyi Biotec). […] Cells were then labeled with fluorescently labeled antibodies against IFN-γ and various phenotype markers and analyzed by flow cytometry to allow detection of specific cell types that were activated to secrete IFN-γ. […]

dendritic cells [4] = assay: in vivo dendritic cell activation (IFN-γ secreting cells); details: encapsulated in POPC:CHOL:DODMA:PEGDMG 20:45:25:10
Description: PBS was used as a control.
FIG. 3 clearly illustrates the ability of encapsulated ODN1m to activate dendritic cells. […] Dendritic cell activation was measured by the percentage of IFN-γ secreting cells. These cells were labeled with an antibody to indicate the cell type and only those having the dendritic cell marker were included in this measurement.

ODN1m: 5′-TAAZGTTGAGGGGCAT-3, SEQ ID NO: 4, Z = methylated cytosine (DNA TAACGTTGAGGGGCAT; DNA, [5mC] at 4, backbone not given here; tested with both phosphodiester and phosphorothioate backbones)
CD86 expression on dendritic cells (dendritic cells [1]): induced CD86 expression on CD11c positive dendritic cells; also recorded: more active than the unmethylated counterpart ODN1
expansion of CD11c positive dendritic cells (dendritic cells [2]): stimulated the expansion of CD11c positive dendritic cells in spleen cells and whole blood cells but not in lymphoid tissue; also recorded: stimulated the expansion of CD11c positive cells in spleen and whole blood
immune stimulation (cytokine secretion of dendritic cells, NK cells, CD8+ T-cells), methylated normalized to unmethylated ODN [3]: consistently at least equivalent to, and often better than
dendritic cell activation (percentage of IFN-γ secreting cells) (dendritic cells [4]): more active than its unmethylated counterpart; also recorded: more active than the unmethylated counterpart ODN1
